Experiments:
Experiment in all cases: biochemical
Set-up in all cases: Fluorogenic phosphatase assay, DiFMUP hydrolysis by recombinant PTPs, initial velocity, Ex/Em 355/460 nm
Settings in all cases: read-out: Inhibition by 20 µM polyphyllin D (%)
[1] = biological target: T1, PTPN13 (PTP-BAS) (Homo sapiens, UniProt Q12923)
T1 construct: 2095-2490
Procedure: (§1) Enzymatic reactions were initiated by the addition of SHP2 (final concentration of 10 nM) to a solution of each of the 658 phytochemical compounds (final concentration of 20 µM) in reaction buffer (20 mM bis-tris pH 6.0, 150 mM NaCl, 2.5 mM dithiothreitol, and 0.01% Triton X-100) containing DiFMUP (final concentration of 140 µM). Changes in the fluorescence intensities were measured continuously for 10 min at Ex/Em = 355/460 nm on a VictorTM X4 multilabel plate reader. Enzyme inhibition was estimated by comparing the reaction velocity in the presence of each compound with that in the absence of any compound. Inhibition of the other PTPs was measured in the same way. Next, we established a screening strategy using a DiFMUP substrate to identify a natural product that inhibits SHP2 activity. Initially, we screened 658 compounds at 20 µM using a 96-well plate system (Figure 2A). […] The selected compounds were tested at 20 µM for SHP2 inhibition, and 14 additional non-receptor-type PTPs (PTP1B, TCPTP, PTPH1, STEP, SHP1, HePTP, PTP-MEG2, PTP-PEST, PTP-BAS, PTP36, PTP-HSCF, PTPD1, LYP, and HD-PTP) were used to investigate the inhibition selectivity. The results were visualized using a heat map analysis by GraphPad Prism (Figure 2B and Table S2 in Supplementary Materials). To identify new SHP2 anticancer natural products, we first performed cloning to express SHP2 protein and then purified it. PTPN11 (Gene ID: 5781) encoding human SHP2 (amino acids sequences 1 to 526) with several extra amino acids were cloned into the MBP-pET 28a (+) vector, which was successfully used to overexpress PTPs with enhanced solubility in an Escherichia coli expression system. Information on amino acids for 15 non-receptor-type PTPs including SHP2 is summarized in Table S3 in the Supplementary Materials. SHP2 was overexpressed in RosettaTM (DE3) and purified using a metal affinity resin (Figure S1 in Supplementary Materials). […] The kcat, KM, and kcat/KM values were determined to be 270 min^−1, 70 μM, and 3.9 μM^−1min^−1, respectively, using the Lineweaver–Burk plot analysis (Table S1 in Supplementary Materials).

[2] = biological target: T2, PTPN2 (TCPTP) (Homo sapiens, UniProt P17706)
T2 construct: 1-387
T2 sequence (P17706 1-415): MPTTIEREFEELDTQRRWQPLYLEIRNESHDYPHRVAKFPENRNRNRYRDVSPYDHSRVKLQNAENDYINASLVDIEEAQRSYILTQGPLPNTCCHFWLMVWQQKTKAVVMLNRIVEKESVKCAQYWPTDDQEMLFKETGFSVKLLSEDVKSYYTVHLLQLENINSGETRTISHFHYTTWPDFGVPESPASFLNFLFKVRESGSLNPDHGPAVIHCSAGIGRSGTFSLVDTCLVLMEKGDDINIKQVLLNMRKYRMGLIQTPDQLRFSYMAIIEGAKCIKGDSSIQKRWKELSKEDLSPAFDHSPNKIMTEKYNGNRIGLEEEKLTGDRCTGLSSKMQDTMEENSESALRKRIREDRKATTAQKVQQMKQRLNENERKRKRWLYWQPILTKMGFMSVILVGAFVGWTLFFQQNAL
Procedure: as §1

[3] = biological target: T3, PTPN14 (PTP36) (Homo sapiens, UniProt Q15678)
T3 construct: 908-1187
T3 sequence (Q15678 1-1187): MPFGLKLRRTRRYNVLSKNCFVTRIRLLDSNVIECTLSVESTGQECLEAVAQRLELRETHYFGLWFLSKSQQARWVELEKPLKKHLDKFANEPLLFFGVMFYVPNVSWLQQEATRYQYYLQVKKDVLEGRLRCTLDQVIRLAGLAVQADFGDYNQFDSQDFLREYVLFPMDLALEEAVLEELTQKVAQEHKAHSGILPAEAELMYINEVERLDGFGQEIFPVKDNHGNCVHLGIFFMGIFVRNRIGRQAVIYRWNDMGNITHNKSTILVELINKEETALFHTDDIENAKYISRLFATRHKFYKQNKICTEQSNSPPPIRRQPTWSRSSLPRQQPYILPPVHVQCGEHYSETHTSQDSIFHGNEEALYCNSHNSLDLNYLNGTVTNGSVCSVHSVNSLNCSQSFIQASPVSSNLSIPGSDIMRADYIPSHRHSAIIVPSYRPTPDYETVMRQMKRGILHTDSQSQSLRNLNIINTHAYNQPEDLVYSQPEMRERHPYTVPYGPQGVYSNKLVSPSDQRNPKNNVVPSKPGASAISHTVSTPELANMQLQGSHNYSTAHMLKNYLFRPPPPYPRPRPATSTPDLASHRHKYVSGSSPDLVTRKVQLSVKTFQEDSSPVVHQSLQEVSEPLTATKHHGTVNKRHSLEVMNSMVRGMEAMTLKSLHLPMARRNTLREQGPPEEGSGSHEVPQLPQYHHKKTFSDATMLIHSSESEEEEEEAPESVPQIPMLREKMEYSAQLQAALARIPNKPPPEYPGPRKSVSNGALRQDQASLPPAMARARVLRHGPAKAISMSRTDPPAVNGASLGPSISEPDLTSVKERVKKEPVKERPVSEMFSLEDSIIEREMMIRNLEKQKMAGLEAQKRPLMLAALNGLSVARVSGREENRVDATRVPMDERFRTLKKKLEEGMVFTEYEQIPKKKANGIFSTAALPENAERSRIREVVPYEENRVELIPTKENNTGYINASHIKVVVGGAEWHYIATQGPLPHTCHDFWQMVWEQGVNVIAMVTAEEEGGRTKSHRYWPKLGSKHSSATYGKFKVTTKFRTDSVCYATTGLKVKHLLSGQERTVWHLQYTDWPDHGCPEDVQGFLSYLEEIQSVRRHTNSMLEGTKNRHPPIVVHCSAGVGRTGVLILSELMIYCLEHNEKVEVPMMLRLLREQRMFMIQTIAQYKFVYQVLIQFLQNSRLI
Procedure: as §1

T1 sequence (Q12923 whole entry): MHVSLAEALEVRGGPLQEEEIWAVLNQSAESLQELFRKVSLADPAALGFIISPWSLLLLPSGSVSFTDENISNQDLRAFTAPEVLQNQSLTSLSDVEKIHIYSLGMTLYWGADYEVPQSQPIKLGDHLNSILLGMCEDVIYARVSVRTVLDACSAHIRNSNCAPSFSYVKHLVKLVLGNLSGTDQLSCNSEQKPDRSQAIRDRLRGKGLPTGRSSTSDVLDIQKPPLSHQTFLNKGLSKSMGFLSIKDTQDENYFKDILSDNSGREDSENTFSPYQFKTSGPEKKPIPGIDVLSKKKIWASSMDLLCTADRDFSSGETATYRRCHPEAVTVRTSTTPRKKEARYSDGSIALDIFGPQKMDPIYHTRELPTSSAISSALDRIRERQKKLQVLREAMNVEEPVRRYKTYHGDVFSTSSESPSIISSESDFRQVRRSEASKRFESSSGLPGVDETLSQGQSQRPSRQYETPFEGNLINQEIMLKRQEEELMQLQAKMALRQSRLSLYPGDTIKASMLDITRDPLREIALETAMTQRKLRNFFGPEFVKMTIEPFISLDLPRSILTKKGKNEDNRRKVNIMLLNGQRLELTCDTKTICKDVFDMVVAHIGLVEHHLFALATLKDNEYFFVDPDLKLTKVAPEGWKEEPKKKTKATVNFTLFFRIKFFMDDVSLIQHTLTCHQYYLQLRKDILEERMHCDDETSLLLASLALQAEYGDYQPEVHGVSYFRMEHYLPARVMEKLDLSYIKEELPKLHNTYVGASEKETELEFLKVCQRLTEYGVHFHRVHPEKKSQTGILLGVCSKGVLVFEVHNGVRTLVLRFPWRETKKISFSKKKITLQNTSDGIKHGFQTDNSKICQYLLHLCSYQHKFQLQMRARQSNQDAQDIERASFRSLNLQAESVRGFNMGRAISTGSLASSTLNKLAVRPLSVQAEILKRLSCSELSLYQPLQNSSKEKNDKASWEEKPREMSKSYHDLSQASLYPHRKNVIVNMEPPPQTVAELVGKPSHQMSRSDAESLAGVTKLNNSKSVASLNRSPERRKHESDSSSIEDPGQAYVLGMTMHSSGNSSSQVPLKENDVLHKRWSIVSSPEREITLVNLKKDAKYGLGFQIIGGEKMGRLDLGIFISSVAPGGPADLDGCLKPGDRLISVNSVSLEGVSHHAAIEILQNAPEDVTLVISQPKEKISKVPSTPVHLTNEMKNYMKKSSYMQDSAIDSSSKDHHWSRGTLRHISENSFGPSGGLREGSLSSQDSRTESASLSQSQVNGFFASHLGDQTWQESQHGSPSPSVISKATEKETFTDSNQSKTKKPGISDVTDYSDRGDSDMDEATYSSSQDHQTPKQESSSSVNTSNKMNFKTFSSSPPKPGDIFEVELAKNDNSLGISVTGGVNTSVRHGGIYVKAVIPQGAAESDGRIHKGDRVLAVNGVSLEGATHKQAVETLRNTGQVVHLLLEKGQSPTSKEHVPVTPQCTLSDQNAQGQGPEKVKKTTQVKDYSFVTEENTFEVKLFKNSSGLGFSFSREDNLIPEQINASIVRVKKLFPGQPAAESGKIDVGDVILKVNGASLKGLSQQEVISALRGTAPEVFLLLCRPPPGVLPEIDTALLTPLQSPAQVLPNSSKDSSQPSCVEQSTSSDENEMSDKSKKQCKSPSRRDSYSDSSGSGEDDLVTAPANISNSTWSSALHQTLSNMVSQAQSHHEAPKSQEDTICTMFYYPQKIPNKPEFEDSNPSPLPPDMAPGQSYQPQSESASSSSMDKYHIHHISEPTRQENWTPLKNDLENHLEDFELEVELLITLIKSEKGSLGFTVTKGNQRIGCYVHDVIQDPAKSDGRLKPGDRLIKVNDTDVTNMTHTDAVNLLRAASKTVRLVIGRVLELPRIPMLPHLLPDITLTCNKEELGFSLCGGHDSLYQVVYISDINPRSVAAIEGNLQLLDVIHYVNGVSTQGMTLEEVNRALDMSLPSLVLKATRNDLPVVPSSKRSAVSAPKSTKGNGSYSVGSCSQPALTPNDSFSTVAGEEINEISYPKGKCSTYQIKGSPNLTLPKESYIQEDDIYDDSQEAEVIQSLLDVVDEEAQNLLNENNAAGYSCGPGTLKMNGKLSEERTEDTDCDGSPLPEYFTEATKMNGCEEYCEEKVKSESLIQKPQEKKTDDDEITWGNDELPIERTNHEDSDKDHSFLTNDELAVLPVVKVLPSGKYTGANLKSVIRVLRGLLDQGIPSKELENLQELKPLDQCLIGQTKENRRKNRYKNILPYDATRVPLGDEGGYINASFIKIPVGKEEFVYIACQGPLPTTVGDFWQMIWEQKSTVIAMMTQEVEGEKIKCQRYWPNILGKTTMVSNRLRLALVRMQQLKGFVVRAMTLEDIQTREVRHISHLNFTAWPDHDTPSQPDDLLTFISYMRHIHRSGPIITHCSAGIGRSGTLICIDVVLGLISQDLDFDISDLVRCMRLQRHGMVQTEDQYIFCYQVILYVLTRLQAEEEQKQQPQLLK

In the case of `C[C@@H]1CC[C@@]2(OC1)O[C@H]1C[C@H]3[C@@H]4CC=C5C[C@@H](O[C@@H]6O[C@H](CO)[C@@H](O[C@@H]7O[C@@H](CO)[C@H](O)[C@H]7O)[C@H](O)[C@H]6O[C@@H]6O[C@@H](C)[C@H](O)[C@@H](O)[C@H]6O)CC[C@]5(C)[C@H]4CC[C@]3(C)[C@H]1[C@@H]2C` [polyphyllin D], the inhibition at 20 µM [1] is reported as 0%, the inhibition at 20 µM [2] is reported as 7.5% and the inhibition at 20 µM [3] is reported as 0%.

Source: article PMC7915588, “Polyphyllin D Shows Anticancer Effect through a Selective Inhibition of Src Homology Region 2-Containing Protein Tyrosine Phosphatase-2 (SHP2)” (Molecules, 2021)
